These results are taken from ChEMBL document CHEMBL5357048, “A survey of stapling methods to increase affinity, activity, and stability of ghrelin analogues” (RSC Med Chem, 2024).

Test [1] concerns the target T1, Growth hormone secretagogue receptor type 1 (Homo sapiens, UniProt Q92847). Nature of the test: Displacement of [125I]ghrelin from GHSR1a in HEK293 cells by competitive binding assay. It counts as cell-based.
Test [2] deals with T1, Growth hormone secretagogue receptor type 1. Nature of the test: Agonist activity at eYFP/RLuc-tagged GHSR1a (unknown origin) transfected in HEK293 cells assessed as beta-arrestin 2 recruitment incubated for 20 mins by BRET assay. It counts as functional, cell-based. (Recruitment of arrestin is a read-out of receptor activation apart from second messengers.)
Test [3] has the same target. In words: Displacement of […] [125I]-ghrelin from eYFP-labelled GHSR1a (unknown origin) transfected in HEK293 cells incubated for 20 mins by radioligand binding assay. The test is classed as cell-based.
The target is the same in test [4]. In words: Agonist activity at eYFP/RLuc-tagged GHSR1a (unknown origin) transfected in HEK293 cells assessed as beta-arrestin 1 recruitment incubated for 20 mins by BRET assay. It counts as functional, cell-based.

pEC50, pIC50: −log10 of the molar value.

T1 sequence (Q92847 whole entry): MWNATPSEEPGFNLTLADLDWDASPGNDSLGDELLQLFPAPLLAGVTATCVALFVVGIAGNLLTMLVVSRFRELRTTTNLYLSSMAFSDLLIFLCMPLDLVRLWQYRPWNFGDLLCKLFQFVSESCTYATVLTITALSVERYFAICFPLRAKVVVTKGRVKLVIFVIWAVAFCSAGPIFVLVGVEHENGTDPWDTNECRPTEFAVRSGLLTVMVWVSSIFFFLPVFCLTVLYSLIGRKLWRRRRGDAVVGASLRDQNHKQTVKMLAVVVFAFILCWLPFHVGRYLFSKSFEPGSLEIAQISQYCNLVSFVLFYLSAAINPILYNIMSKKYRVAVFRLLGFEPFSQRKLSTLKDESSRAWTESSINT

As a reminder, the pIC50 is −log10 of the IC50, conventionally taken in molar units. Low readings indicate a large IC50, high ones a small IC50. Consider `CCCCCCCC(=O)OC[C@H](NC(=O)[C@H](CO)NCC(N)=O)C(=O)N[C@@H](Cc1ccccc1)C(=O)N[C@@H](CC(C)C)C(=O)N[C@@H](CO)C(=O)N1CCC[C@H]1C(=O)N[C@@H](CCC(=O)O)C(=O)N[C@@H](Cc1c[nH]cn1)C(=O)N[C@@H](CCC(N)=O)C(=O)N[C@@H](CCCNC(=N)N)C(=O)N[C@H](C(=O)N[C@@H](CCC(N)=O)C(=O)N[C@@H](CCC(N)=O)C(=O)N[C@@H](CCCNC(=N)N)C(=O)N[C@@H](CCCCN)C(=O)N[C@@H](CCC(=O)O)C(=O)N[C@@H](CO)C(=O)N[C@@H](CCCCN)C(=O)N[C@@H](CCCCN)C(N)=O)C(C)C`, for which the pIC50 in test [1] was 8.10.

A word on the pEC50: it is −log10 of the EC50, conventionally taken in molar units. On to `CCCCCCCC(=O)OC[C@H](NC(=O)[C@H](CO)NCC(N)=O)C(=O)N[C@@H](Cc1ccccc1)C(=O)N[C@@H](CC(C)C)C(=O)N[C@@H](CO)C(=O)N1CCC[C@H]1C(=O)N[C@@H](CCC(=O)O)C(=O)N[C@@H](Cc1c[nH]cn1)C(=O)N[C@@H](CCC(N)=O)C(=O)N[C@@H](CCCNC(=N)N)C(=O)N[C@H]1CSCc2ccc(cc2)CSC[C@@H](C(=O)N[C@@H](CCC(=O)O)C(=O)N[C@@H](CO)C(=O)N[C@@H](CCCCN)C(=O)N[C@@H](CCCCN)C(=O)O)NC(=O)[C@H](CCCNC(=N)N)NC(=O)[C@H](CCC(N)=O)NC(=O)[C@H](CCC(N)=O)NC1=O`, for which the pEC50 in test [2] was 7.15; in test [4], 7.04. The pIC50 in test [3] was 8.31.

In the case of `CCCCCCCC(=O)OC[C@H](NC(=O)[C@H](CO)NCC(N)=O)C(=O)N[C@@H](Cc1ccccc1)C(=O)N[C@@H](CC(C)C)C(=O)N[C@@H](CO)C(=O)N1CCC[C@H]1C(=O)N[C@@H](CCC(=O)O)C(=O)N[C@@H](Cc1c[nH]cn1)C(=O)N[C@@H](CCC(N)=O)C(=O)N[C@@H](CCCNC(=N)N)C(=O)N[C@@]1(C)CCC/C=C\CCC[C@@](C)(C(=O)N[C@@H](CCC(=O)O)C(=O)N[C@@H](CO)C(=O)N[C@@H](CCCCN)C(=O)N[C@@H](CCCCN)C(=O)O)NC(=O)[C@H](CCCNC(=N)N)NC(=O)[C@H](CCC(N)=O)NC(=O)[C@H](CCC(N)=O)NC1=O`, the pEC50 in test [2] is 6.94; in test [4], 7.11. Further, the pIC50 in test [3] was 8.84.
